# According to patent US12667546B2, “Methods for manipulating cell state transitions in cancer” (AGENCY FOR SCIENCE, TECHNOLOGY AND RESEARCH, priority 2018, dated 2026):
# Columns and labels:
# [1] = test system: NAMEC8; assay: Lipid droplet staining (Bodipy); assay type: cell-based, human; conditions: NAMEC8, with bexarotene
# Protocol: Intracellular lipid droplets were visualized with fluorescent Bodipy dye. Cells in culture were fixed in 4% paraformaldehyde for 15 min at room temperature, rinsed twice with PBS and permeabilized with 0.2% TritonX-100 in PBS for 10 min and incubated with Bodipy diluted in PBS (final concentration 1 μg/ml) for overnight at 4° C. Cells were washed with PBS and stained with DAPI. Fluorescence images were obtained with an Axio Observer D1 epifluorescence microscope with a built-in AxioCamMR3 camera (Zeiss), using the optimal filters and 100-200× magnifications.
# [2] = test system: NAMEC8; assay: Expression of EMT and lineage markers (qRT-PCR, immunoblot, immunofluorescence) in NAMEC8; assay type: cell-based, human; conditions: transcript and protein
# Protocol: Cells were rinsed twice in ice-cold PBS. Total RNA was extracted using Trizol (Invitrogen) and column-purified with RNeasy kits (Qiagen). cDNA synthesis was performed with 500 ng of total RNA at 37° C. for 2 h using the SuperScript III First-Strand Synthesis System (Thermo Fisher Scientific), and subsequently diluted 5-fold. mRNA levels were measured with gene-specific primers listed below using the ABI Prism 7900HT Sequence Detection System 2.2 (Applied Biosystems). Results were normalized to GAPDH and analyzed using SDS 2.2 software.
# Cells were harvested and scraped from culture dishes in ice-cold PBS. They were then centrifuged at 12000 rpm for 5 min at 4° C. The pellets were then snap frozen in liquid nitrogen or lysed in ice-cold RIPA lysis buffer (Thermo Scientific) and left on ice for 30 min. Subsequently, the lysates were centrifuged at 12000 rpm for 10 min at 4° C. The supernatants were then aspirated and placed in fresh tubes. Protein concentrations were determined using Coomaisse Blue. 50-80 μg total protein was mixed with NuPAGE™ LDS sample buffer and heated at 70° C. for 10 min. Samples were loaded into NuPAGE™ 4-12% Bis-Tris gels (precast polyacrylamide gel; Invitrogen™). Gel electrophoresis was done at 200V for 1.5 h and then blotted onto nitrocellulose membranes (Trans-Blot Turbo™ transfer pack; Bio-Rad). The membranes were blocked with 5% skimmed milk in Tris-buffered saline (TBS; 1st BASE) with 0.1% Tween-20 (Santa Cruz), and then incubated with primary antibodies overnight at 4° C. Thereafter, the membranes were incubated with a horseradish peroxidase (HRP)-conjugated secondary antibody at room temperature for one hour. Finally, the immunoreactive proteins were visualized by using an enhanced chemiluminescent (ECL) reagent (Thermo Scientific, 34075) with the Chemidoc™ Imager (Bio-Rad, 17001401).
# Cell cultures were fixed in 4% paraformaldehyde and permeabilized with 0.25% Triton X-100, followed by blocking with 1% bovine serum albumin in PBST. Cells were incubated in specific primary antibodies, followed by the appropriate secondary antibodies conjugated with Alexa Fluor-488 or -594 (Molecular Probes). Cell nuclei were then stained with DAPI and then viewed and imaged with an Axio Observer D1 epifluorescence microscope with a built-in AxioCamMR3 camera (Zeiss), using the optimal filters and 100-200× magnifications.
# [3] = test system: NAMEC8; assay: Mammosphere assay, NAMEC8; assay type: cell-based, human; conditions: NAMEC8, pre-treated cells
# Protocol: For mammosphere culture, cells were seeded onto 96-well ultralow-adherence plates at 700 cells/well in Mammocult medium (Stem Cell Technologies) supplemented with 4 μg/ml heparin, 0.5 μg/ml hydrocortisone and 1% methylcellulose. Spheres (>100 μm) were counted at 7-10 days later.
# [4] = test system: SERPINE1prom-Luc reporter in NAMEC8 cells; assay: Dual-Glo luciferase assay of SERPINE1prom-Luc reporter (FF/Ren); assay type: cell-based, human; conditions: for dose-dependent change of SERPINE1 promoter activity: dose response (metabolic hits 10 nM to 2 μM; epigenetic hits six concentrations)
# Description: pGreenFire1-mCMV was cut using ClaI and SpeI and gel purified. Promoter sequences of genes Zeb1, Serpine1, CDH1, CD24, CD44, CD166 were amplified from human genomic DNA with pre-designed primers containing ClaI and SpeI restriction cut sites using AccuPrime Taq DNA Polymerase (Thermo Fisher Scientific). PCR products were then digested with restriction enzymes and gel-purified. Vector was ligated with PCR insert using Quick Ligase (Fermentas) and transformed into Stb12 competent cells. Colonies were picked and inoculated into TB media with ampicillin. Plasmids were then isolated using a plasmid miniprep kit (Qiagen) and sent for sequencing (1 stBASE Laboratories). After verifying the plasmid sequence, transfection into HEK293 cells was carried out to generate lentivirus. Transfection was carried out using FuGENE 6 (Promega). Viral supernatant was harvested at 24 h and 48 h. NAMEC8 cells were then infected twice with virus using polybrene ([…]) and checked for good transduction efficiency using Dual-Glo Luciferase System (Promega).
# Stock plates of compound libraries were kindly prepared by GIS CHiP facility at 1 mM concentration in DMSO. NAMEC8-SERPINE1prom-Luc cells were seeded into 384 well plates at a density of 700 cells/well in a total volume of 50 μl, using an automated dispensing system (BioTek). 0.5 μl of compounds were then added to the wells the following day using a robotic pin transfer with a Bravo workstation (Agilent Technologies). Cells were then grown for 3 days and promoter-luciferase activity was measured using the Dual-Glo Luciferase System (Promega).
# Assay was carried out according to manufacturer's instructions. To measure luciferase activity in 384 well plates, media was first removed from the plate. Firefly luciferase activity was determined by adding 30 μl Dual-Glo Luciferase substrate (Promega) to the wells and incubated for 10 min before measuring luminescence using a TECAN M1000 Pro plate reader. 15 μl Dual-Glo Stop & Glo substrate was then added to the wells, incubated for 10 min and measuring luminescence on the plate reader to determine Renilla luciferase activity. Promoter luciferase activity is then calculated by taking Firefly luciferase over Renilla luciferase.
# [5] = test system: NAMEC8; assay: Cell morphology of treated NAMEC8; assay type: cell-based, human; conditions: bexarotene, TTNPB, SGC-CBP30, UNC0642, A-485 1 μM, LLY-283, GSK591 20 nM, C-IN-1 500 nM
# Protocol: Human mammary epithelial cell lines (HMLE) were generated as described and immortalized using retroviral vectors to express the catalytic subunit of the human telomerase enzyme, hTERT and the SV-40 Large T antigen. NAMEC8 was generated as described. Briefly, HMLE cells were grown to 50% confluency, followed by differential trypsinization for 1 minute with 0.05% trypsin. Detached cells were carefully collected and re-plated at approximately 200 cells per well of a 24-well plate. Upon expansion, wells were screened for populations that were morphologically mesenchymal and can be stably propagated. Clonal and non-clonal NAMEC cell lines were generated. NAMEC8 is a non-clonal line derived from at least 200 mesenchymal cells. HMLE cells and NAMECs were maintained in MEGM (Lonza).
# [6] = test system: SUM159; assay: Cell morphology of treated SUM159; assay type: cell-based, human; conditions: bexarotene, TTNPB 1 μM
# Protocol: HMLE-Twist-ER cells were generated as described. For EMT-induction, 100 nM of 4-hydroxytamoxifen in ethanol was added to the culture medium every 48 h to induce Twist expression. Control cells were treated with ethanol. MCF7-Slug+Sox9 cells were generated as previously described. HMLE-Zeb1 cells were generated by infection with FUW-Zeb1 and rTTA. Doxycycline was added to the culture medium every 48 h to induce Zeb1 expression. To generate tumorigenic cells from NAMEC8, cells were infected with pWZL-Blast-Ras. MCF7, MCF7-Ras, SUM159 were maintained as previously described. All cell cultures were maintained at 37° C. with 5% CO2.
# [7] = test system: Estrogen response element (ERE)-luciferase reporter in NAMEC8; assay: ERE-luciferase activity assay; assay type: cell-based, human
# Protocol: ERE luciferase construct was kindly provided by Alan Prem Kumar, CSI, Singapore. To measure the ERE-luciferase activity, cells were seeded 24 h before transfection. ERE-luciferase (1 μg) and NSV-Renilla (0.1 μg) were packaged using Lipofectamine 2000 and transfected into NAMEC8. 24 h post-transfection, cells were reseeded into 96 well plates for drug treatment. Firefly and Renilla luciferase activities were measured with the Dual-Glo Luciferase System (Promega) 24 h post-treatment.
# [8] = test system: NAMEC8-SERPINE1prom-Luc cells; assay: Renilla-luciferase (constitutive CMV promoter) readout for cell numbers; assay type: cell-based, human; conditions: primary screen, Renilla as readout for cell numbers, relative to DMSO
# [9] = test system: SUM159; assay: Tumor growth of ex vivo pre-treated SUM159 injected subcutaneously; assay type: in vivo, NSG mice; conditions: short-term (14 days) ex vivo treatment before transplantation
# Protocol: (§1) All animal experiments were approved by the Agency for Science Technology and Research Singapore-Biological Resource Centre IACUC (Protocol number 140940). For pre-treated SUM159 and MCF7-Ras cells, 1×10^6 cells were suspended in 100 μl media containing 50% matrigel and injected subcutaneously into both flanks of female NSG mice. The NSG mice were checked for tumor by palpation once a week and tumors were harvested when they reached ˜15 mm in diameter. For treatment in NSG mice, 1×10^5 NAMEC8-Ras cells were suspended in 100 μl media containing 50% matrigel and injected subcutaneously into both flanks of NSG mice. The NSG mice were checked for tumor formation by palpation and when tumors were about 3 mm, mice were randomized into two groups: vehicle (5% DMSO in corn oil) and treatment (Bexarotene, 100 mg/kg/day oral dosing). Tumor size was measured every week using Vernier calipers and mice were sacrificed when tumors reached ˜15 mm or after ˜4 weeks of treatment. For patient-derived cells, 2×10^6 cells were injected subcutaneously per site in NSG mice.
# [10] = test system: MCF7-Ras; assay: Tumor growth of ex vivo pre-treated MCF7-Ras injected subcutaneously; assay type: in vivo, NSG mice; conditions: ex vivo treatment before injection
# Protocol: as §1
# [11] = test system: SUM159 PACR cells; assay: Cell viability IC50 in SUM159 PACR cells; conditions: SUM159 PACR vs SUM159 PT
compound,measurement,setting,value
COc1cc(C)c(C(=O)Oc2cc(C)c(C(=O)Oc3cc(C)c(C(=O)NC(C)C(=O)O)c(O)c3)c(O)c2)c(OC)c1 (centres unmarked) [AmidepsineA],accumulation of lipid droplets during retinoid treatment,[1],clear reductions in the accumulation of lipid droplets during retinoid treatment
same,expression of EMT and basal/luminal markers,[2],"the gain in epithelial-luminal gene markers such as E-cadherin, KRT8, and MUC1 were suppressed"
CCCCCCCCCS(=O)(=O)Nc1ccccc1C(=O)O [FSG67],accumulation of lipid droplets during retinoid treatment,[1],clear reductions in the accumulation of lipid droplets during retinoid treatment
same,expression of EMT and basal/luminal markers,[2],"the gain in epithelial-luminal gene markers such as E-cadherin, KRT8, and MUC1 were suppressed"
O=C(NC[C@H](O)CN1CCc2ccccc2C1)c1ccnc(NC2CCC2)c1 [GSK591],expression of EMT and basal/luminal markers,[2],no apparent change was observed
same,mammosphere formation,[3],significantly reduce the size and number of spheres formed
CN(C)c1ccc(C2Nc3ccc4ccccc4c3C3=C2C(=O)CC(C)(C)C3)cc1Br (centres unmarked) [Glutaminase C-IN-1],expression of EMT and basal/luminal markers,[2],"mesenchymal proteins Zeb1, fibronectin, Slug and Snail were decreased, epithelial E-Cadherin was increased"
same,dose-dependent change of SERPINE1 promoter activity,[4],dose dependent decrease in SERPINE1 promoter activity
same,dose-dependent change of SERPINE1 promoter activity,[4]; listed as C-IN-1,dose-response effect of decreasing SERPINE1 promoter activity
same,cell morphology,[5],morphological change from a scattered distribution typically observed in mesenchymal cells to tight clusters of epithelial islands
Nc1ncnc2c1ccn2[C@@H]1O[C@H]([C@H](O)c2ccccc2)[C@@H](O)[C@H]1O [LLY-283],expression of EMT and basal/luminal markers,[2],no apparent change was observed
same,mammosphere formation,[3],significantly reduce the size and number of spheres formed
C/C(=C\c1ccc(C(=O)O)cc1)c1ccc2c(c1)C(C)(C)CCC2(C)C [TTNPB],cell morphology,[6],"dramatic change in morphology from scattered, spindle and fibroblastic-like cells to an epithelial-like morphology"
same,ERE-luciferase reporter activity,[7],increased
same,% Avr Renilla from DMSO,[8],58.46%
same,Avr FF/Renilla from DMSO,"[4]; primary screen, NAMEC8-SERPINE1prom-Luc cells grown 3 days with compound, relative to DMSO",0.19
same,tumorigenic potential,[9],severely crippled their tumorigenic potential for up till seven weeks post-transplantation
same,cell morphology,[5],"dramatic change in morphology from scattered, spindle and fibroblastic-like cells to an epithelial-like morphology"
"CC1=C(/C=C/C(C)=C/C=C/C(C)=C/C(=O)O)C(C)(C)CCC1 [Tretinoin (Aberela), Tretinoin]",tumor cell growth,[10],no impact on the tumor cell growth was observed
same,viability at 10 µM,"[8]; Homo sapiens, 72 h, read-out: % Avr Renilla from DMSO",87%
same,activity at 10 µM,"[4]; Homo sapiens, 72 h, primary screen, NAMEC8-SERPINE1prom-Luc cells grown 3 days with compound, relative to DMSO, read-out: Avr FF/Renilla from DMSO",50%
COc1cc2c(NC3CCN(C(C)C)CC3)nc(N3CCC(F)(F)CC3)nc2cc1OCCCN1CCCC1 [UNC0642],expression of EMT and basal/luminal markers,[2],no apparent change was observed
CC(=O)O[C@H]1C(=O)[C@@]2(C)[C@H]([C@H](OC(=O)c3ccccc3)[C@]3(O)C[C@H](OC(=O)[C@H](O)[C@@H](NC(=O)c4ccccc4)c4ccccc4)C(C)=C1C3(C)C)[C@]1(OC(C)=O)CO[C@@H]1C[C@@H]2O [paclitaxel],"increase in paclitaxel-resistance, PACR vs parental (PT) cells",[11],> 20 fold
